In article PMC7558535, “In Vitro Metabolism of DWP16001, a Novel Sodium-Glucose Cotransporter 2 Inhibitor, in Human and Animal Hepatocytes” (Pharmaceutics, 2020):

Assays:
Type in all cases: in vitro ADME
UGT1A9 = target: T1, UGT1A9 (Homo sapiens, UniProt O60656); assay: UGT screening, cDNA-expressed UGT1A9
T1 construct: purchased Corning Life Sciences
T1 sequence (O60656 26-530): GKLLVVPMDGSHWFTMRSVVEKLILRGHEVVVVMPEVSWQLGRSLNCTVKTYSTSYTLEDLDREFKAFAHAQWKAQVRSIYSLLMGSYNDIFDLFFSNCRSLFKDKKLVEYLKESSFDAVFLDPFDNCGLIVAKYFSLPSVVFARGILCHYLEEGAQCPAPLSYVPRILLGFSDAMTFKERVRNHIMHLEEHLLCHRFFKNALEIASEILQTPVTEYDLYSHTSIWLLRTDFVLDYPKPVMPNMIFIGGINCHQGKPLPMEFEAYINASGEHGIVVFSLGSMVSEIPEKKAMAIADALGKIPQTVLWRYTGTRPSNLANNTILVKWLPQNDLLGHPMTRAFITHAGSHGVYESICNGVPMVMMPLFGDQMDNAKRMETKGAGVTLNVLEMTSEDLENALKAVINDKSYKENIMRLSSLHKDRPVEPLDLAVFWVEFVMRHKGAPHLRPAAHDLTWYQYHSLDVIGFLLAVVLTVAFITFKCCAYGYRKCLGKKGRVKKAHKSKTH
Method: To screen for UGT enzymes responsible for glucuronidation of DWP16001, 100 μL of reaction mixtures containing 13 human cDNA-expressed UGT enzymes (1A1, 1A3, 1A4, 1A6, 1A7, 1A8, 1A9, 1A10, 2B4, 2B7, 2B10, 2B15, and 2B17) at 0.1 mg protein/mL, 5 mM UDPGA, 0.025 mg/mL alamethicin, and 25 μM DWP16001 or M1 in 50 mM Tris buffer (pH 7.4) were incubated at 37 °C for 30 min in triplicate. Reactions were stopped by adding 100 μL of ketoconazole (internal standard, 200 ng/mL) in acetonitrile, followed by vortex-mixing and centrifugation (15,000× g, 8 min, 4 °C). The supernatant (75 μL) was diluted with equal volume of 30% acetonitrile and aliquots (5 μL) were injected into an LC-MS/MS system.

[1] = Metabolic stability in dog hepatocytes; details: pooled cryopreserved hepatocytes, dog hepatocytes
Method: (§1) To evaluate the metabolic stability of DWP16001 in human, dog, monkey, mouse, and rat hepatocytes, pooled cryopreserved hepatocytes were carefully thawed in recovery medium and resuspended in incubation medium (Krebs–Henseleit buffer for mouse, rat, and human; William’s E media for dog and monkey) to 0.5 × 10^6 cells/mL for mouse, 0.67 × 10^6 cells/mL for rat, and 1.0 × 10^6 cells/mL for dog, monkey, and human in accordance with the manufacturer’s protocols. Then, 60-μL aliquots of these hepatocyte suspensions and an equal volume of 2 μM DWP16001 in incubation medium were mixed in 96-well plates and incubated in triplicate for 0, 30, 60, 90, 120, 180, or 240 min in a CO2 incubator at 37 °C. Reactions were stopped by addition of 120 µL of ice-cold acetonitrile to each well and the cell suspension was sonicated for 5 min at 4 °C, followed by centrifugation at 15,000× g for 10 min at 4 °C after 5 min of sonication. 80-µL aliquots of the supernatants were then vortex-mixed with 20 μL of ice-cold ketoconazole (an internal standard) in acetonitrile and analyzed by LC–tandem mass spectrometry (LC-MS/MS). The peak area ratios of DWP16001 versus internal standard at each sampling point were used for the subsequent calculation. Elimination parameters, including half-life (t1/2), intrinsic clearance (Clint), and hepatic clearance (Clhep) of DWP16001 in mouse, rat, dog, monkey, and human were calculated by the following equations [19]. (1) t1/2min=ln2/−k elimination slope (2) ClintmL/min/kg=ln2/t1/2×mL incubation/hepatocytes 10^6 cells×B×10^6 cells/g liver×A g liver/kg BW (3) ClhepmL/min/kg=Qh×Clint/Qh+Clint (4) Hepatic extraction ratio = Clhep/Qh
(§2) Here, A has values of 87.5, 40, 32, 32, and 25.7; B has values of 135, 117, 215, 120, and 139; Qh (representing hepatic blood flow) has values of 90, 55.2, 30.9, 43.4, and 20.7 mL/min/kg, for mouse, rat, dog, monkey, and human, respectively. Hepatic extraction ratio values of ≤ 0.25, 0.25–0.75, and ≥ 0.75 were regarded as low, moderate, and high, respectively.

dog hepatocytes = assay: Metabolic stability in dog hepatocytes
Method: as §1, §2

human liver microsomes = assay: Enzyme kinetics of metabolite formation in human liver microsomes
Method: To calculate the enzyme kinetic parameters for the M1 and M2 formation from DWP16001, DWP16001 (final concentrations, 1–200 μM) was incubated with NADPH-generating system, pooled human liver microsomes (0.25 mg/mL), or human cDNA-expressed CYP3A4 or CYP2C19 supersomes (10 pmol) at 37 °C for 30 min in triplicate. Reactions were stopped by addition of 400 μL of ice-cold ketoconazole (200 ng/mL) in acetonitrile. Following vortex-mixing and centrifugation (15,000× g, 8 min, 4 °C), 75 μL aliquots of the supernatant were diluted with 75 µL of 30% acetonitrile; 5 μL aliquots were injected into an LC−MS/MS system.
Apparent kinetic parameters (Km, Vmax and n) for the formation of M1, M2, and M3 from DWP16001 by human liver microsomes, CYP3A4, or CYP2C19 were calculated as follows: the unweighted formation rates of M1, M2, and M3 over a range of DWP16001 concentrations were fitted to the Hill equation model [V = Vmax × S^n/(Km^n + S^n)] or the single enzyme model [V = Vmax × S/(Km + S)] using Enzyme Kinetics software (version 1.1 SPSS Inc., Chicago, IL, USA). In the above equations, V means the reaction velocity of the formation of M1, M2, and M3 at given concentration [S] of DWP16001, Vmax means the maximum reaction velocity, n means the Hill constant, and Km means the DWP16001 concentration at which the reaction velocity is 50% of Vmax.

SMILES: OC[C@H]1O[C@@H](c2cc(Cc3ccc(C4CC4)cc3)c(Cl)c3c2CCO3)[C@H](O)[C@@H](O)[C@@H]1O [DWP16001, (2S,3R,4R,5S,6R)-2-(7-chloro-6-(4-cyclopropylbenzyl)-2,3-dihydrobenzofuran-4-yl)-6-(hydroxymethyl)tetrahydro-2H-pyran-3,4,5-triol]
- Substrate of UGT1A9 (UGT1A9): substrate
- CLint scaled at 1 μM [1]: 42.7 mL/min/kg
- half-life at 1 μM ([1]; 37 °C, 0-240 min): 3.73 h
- Hepatic extraction ratio class (dog hepatocytes; dog): moderate (0.25–0.75)
- Clhep (dog hepatocytes; dog hepatocytes, well-stirred model): 17.9 mL/min/kg
- M1 Formation Vmax (human liver microsomes; HLM): 980.3 pmol/min/mg protein
- M1 Formation n (hill coefficient) (human liver microsomes; HLM): 0.9176
- M2 Formation Vmax (human liver microsomes; HLM): 82.8 pmol/min/mg protein
- M2 Formation n (hill coefficient) (human liver microsomes; HLM): 0.9773
- M1 Formation Mode (human liver microsomes; HLM, kinetic model fitted): Hill
- M2 Formation Mode (human liver microsomes; HLM, kinetic model fitted): Hill
- M3 formation from DWP16001 in enzyme kinetic analysis (human liver microsomes; human liver microsomes): not detected
